Where two headings read alike, the source gives them in different places.
Experiments:
LPS-induced lung injury = type: in vivo, mice
[1] = tested on: polymicrobial sepsis-induced lung injury; conditions: in vivo
[2] = tested on: brain ischemia-reperfusion injury; conditions: acute rat model, focal ischemia-reperfusion, inhaled; cited from earlier work
chrondrocytes = conditions: cited from earlier work
canines = conditions: cited from earlier work; for mean SVRI compared to controls (albumin and saline) / mean MAP compared to controls (albumin and saline): 1-3 hr, after 1-hour infusion; for mean SVRI compared to controls (albumin and saline): oxyHb p<0.0001, metHb p=0.04; for mean MAP compared to controls (albumin and saline): oxyHb p<0.0001, metHb p=0.05
[3] = several time points; cited from earlier work
NO = conditions: cited from earlier work; for NO consumption ability of plasma compared to controls with infused albumin and saline: samples collected after infusion, both p<0.0001
HIF = conditions: cited from earlier work
[4] = tested on: free water-induced intravascular hemolysis; conditions: in vivo; cited from earlier work
cell-free Hb = cell-free Hb (Homo sapiens, UniProt P68871+P69905); conditions: cited from earlier work
cell-free Hb, sequence (P69905 2-142 limits assumed): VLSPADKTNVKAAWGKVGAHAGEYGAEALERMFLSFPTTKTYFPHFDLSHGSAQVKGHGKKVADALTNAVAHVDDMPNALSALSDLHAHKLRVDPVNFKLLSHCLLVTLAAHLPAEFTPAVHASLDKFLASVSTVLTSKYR
cell-free Hb, sequence (P68871 2-147 limits assumed): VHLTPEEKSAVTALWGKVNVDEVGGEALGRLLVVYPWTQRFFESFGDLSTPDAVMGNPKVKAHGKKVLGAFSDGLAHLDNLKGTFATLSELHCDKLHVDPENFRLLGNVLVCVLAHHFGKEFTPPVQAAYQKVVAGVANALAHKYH

With `[HH]` [H2, hydrogen] the “LPS-induced pulmonary early and late NF-κB activation” value (LPS-induced lung injury; H2 and/or NO treatment) was “inhibited”, the cell apoptosis (LPS-induced lung injury; H2 and/or NO treatment) was “down-regulated” and the pulmonary inflammation (LPS-induced lung injury; H2 and/or NO treatment) was “down-regulated”. The lung injury (LPS-induced lung injury; intratracheal LPS, 2% H2 and/or 20 ppm NO for 3 hours starting at 5 minutes or 3 hours after LPS) was “significantly improved”, the “lung injury in polymicrobial sepsis” value [1] was “significantly attenuated” and the brain injury [2] was “markedly suppressed”. The “generation of hydroxyl radicals and peroxynitrite” value (chrondrocytes) was “selectively reduce”.
For “metHb: cell-free ferric methemoglobin (Fe3+) infused into animals”, the “mean SVRI compared to controls (albumin and saline)” value (canines) is listed as “elevations”, the “mean MAP compared to controls (albumin and saline)” value (canines) is listed as “elevations” and the vascular pressures (canines; cell-free metHb infusions, after being reduced to oxyHb) is listed as “increase”. For the same compound, the “clearance / stability in plasma compared with cell-free oxyHb” value (canines; in vivo) was “cleared faster and/or is less stable”, the “increase in MAP compared to the oxyHb infusions” value (canines; similar concentrations of Hb solutions over 1 hour, p=0.006) was “significantly less of an increase” and the “increase in SVRI compared to the oxyHb infusions” value (canines; similar concentrations of Hb solutions over 1 hour, p=0.04) was “significantly less of an increase”. The “correlation of metHb levels converted from infused oxyHb with changes in MAP” value (canines; throughout the experiment) was “not correlated”, the “mean plasma nitrite levels compared to controls” value [3] was “similar” and the “NO consumption by plasma relative to the infused oxyHb-containing plasma” value (NO; p=0.009) was 10 fold lower. The “NO consumption ability of plasma compared to controls with infused albumin and saline” value (NO) was “Elevated”.
For nitric oxide [inhaled NO], the “LPS-induced pulmonary early and late NF-κB activation” value (LPS-induced lung injury; mouse, in vivo) was “inhibited”, the cell apoptosis (LPS-induced lung injury; mouse, in vivo) was “down-regulated” and the lung injury (LPS-induced lung injury; mouse, in vivo) was “significantly improved”. The pulmonary inflammation (LPS-induced lung injury; mouse, in vivo) was “down-regulated”, the “effect on HIF” value (HIF; high doses and after 30 minutes) was “inhibitory” and the “effect on HIF” value (HIF; low dose, for 30 minutes, during hypoxia) was “stimulates”. For the same compound, the “lung injury in polymicrobial sepsis” value [1] was “significantly attenuated”, the MAP [4] was “no net effect” and the SVRI [4] was “no net effect”. The “effect of sodium nitroprusside on CI during hemolysis” value [4] was “restored”, the “effect of sodium nitroprusside on SVRI during hemolysis” value [4] was “restored” and the “hypertensive effects associated with intravascular free water induced hemolysis and release of cell-free oxyHb” value [4] was “completely eliminates”. For the same compound, the “impairment in the ability of the kidneys to compensate for hyponatremia (serum sodium levels)” value [4] was “attenuated”, the “increase in MAP caused by free water-induced intravascular hemolysis” value [4] was “attenuated” and the “increase in SVRI caused by free water-induced intravascular hemolysis” value [4] was “attenuated”. The six-hour creatinine clearance [4] was “intermediate clearance”, the systemic blood pressure [4] was “miniscule or no measurable effects” and the “total plasma Hb composition” value [4] was “predominantly methemoglobin”. The vasoconstriction [4] was “prevent vasoconstriction”, the “increase in SVRI on infusion of cell-free Hb” value (cell-free Hb; animals breathing NO (n=2)) was “attenuated” and the “increase in pulmonary vascular resistance index on infusion of cell-free Hb” value (cell-free Hb; animals breathing NO (n=2)) was “attenuated”. For the same compound, the “species of the cell-free Hb” value (cell-free Hb; animals breathing NO (n=2)) was “converted to methemoglobin”.
In the case of “oxyHb: cell-free oxyhemoglobin (Fe2+-O2) infused into animals”, the “mean SVRI compared to controls (albumin and saline)” value (canines) is listed as “significant elevations”, the “mean MAP compared to controls (albumin and saline)” value (canines) is listed as “significant elevations” and the MAP (canines; 2 hours after the oxyHb infusion ended, same rate as during the infusion) is listed as “continued to steadily increase”. The “increase in MAP” value (canines; oxyHb infusion, from 0 to 3 hr, p<0.0001) was 27%, the “mean plasma nitrite levels compared to controls” value [3] was “similar” and the “increase in NO consumption ability of plasma, ranking” value (NO; among infused groups) was “highest”. The “NO consumption ability of plasma compared to controls with infused albumin and saline” value (NO) was “Elevated”.
For “cell-free Hb: cell-free hemoglobin infused with or without inhaled NO”, the “species of the cell-free Hb” value (cell-free Hb; animals breathing air (n=2)) is listed as “remained predominantly oxyhemoglobin”, the SVRI (cell-free Hb; infusion of cell-free Hb) is listed as “increases” and the “pulmonary vascular resistance index” value (cell-free Hb; infusion of cell-free Hb) is listed as “increases”.

From US20170165293A1, “METHOD AND APPARATUS FOR SCAVENGING PLASMA FREE HEMOGLOBIN” (GENO LLC, priority 2015, published 2017)
